From ChEMBL document CHEMBL1134215, “Influence of chain length and N-alkylation on the selective serotonin receptor ligand 9-(aminomethyl)-9,10-dihydroanthracene” (Bioorg Med Chem Lett, 2001) come the findings set out here.

Holding throughout (format): cell-based
The target in experiment [1] is 5-hydroxytryptamine receptor 2A (Homo sapiens, UniProt P28223). Description: Displacement of [3H]ketanserin from 5-hydroxytryptamine 2A receptor expressed NIH3T3 cells. For orientation: Displacement assays read how much labelled ligand stays bound in the presence of the test substance.
The target in experiment [2] is Sodium-dependent serotonin transporter (Mus musculus, UniProt Q60857). Description: Binding affinity to Serotonin transporter using [3H]-paroxetine as radioligand in stably transfected NIH3T3 cells.
In experiment [3] the target is Sodium-dependent noradrenaline transporter (Mus musculus, UniProt O55192). Description: Binding affinity to Norepinephrine transporter using [3H]-[…] as radioligand in stably transfected NIH3T3 cells.
A further experiment deals with D(2) dopamine receptor (Mus musculus, UniProt P61168). Description: Binding affinity to Dopamine receptor D2 using [3H]spiperone as radioligand in stably transfected NIH3T3 cells.
Experiment [4] concerns the target T1, 5-hydroxytryptamine receptor 2C (Mus musculus, UniProt P34968).
T1 sequence (P34968 whole entry): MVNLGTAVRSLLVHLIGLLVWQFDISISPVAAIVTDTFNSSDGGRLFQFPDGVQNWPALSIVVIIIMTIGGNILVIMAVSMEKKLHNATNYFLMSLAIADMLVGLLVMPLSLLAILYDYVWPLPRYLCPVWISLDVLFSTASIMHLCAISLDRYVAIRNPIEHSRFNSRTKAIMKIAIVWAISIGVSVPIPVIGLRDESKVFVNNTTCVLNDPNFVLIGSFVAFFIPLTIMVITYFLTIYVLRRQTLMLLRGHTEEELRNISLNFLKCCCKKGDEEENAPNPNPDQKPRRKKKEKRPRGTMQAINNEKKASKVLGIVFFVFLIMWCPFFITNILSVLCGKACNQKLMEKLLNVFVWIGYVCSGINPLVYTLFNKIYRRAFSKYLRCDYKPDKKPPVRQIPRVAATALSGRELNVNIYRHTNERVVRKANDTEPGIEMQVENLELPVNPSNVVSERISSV
As to the kind of experiment: Binding affinity to 5-hydroxytryptamine 2C receptor measured using radioligand [3H]Mesulergine in stably transfected NIH3T3 cells.

The target of experiment [5] is T1, 5-hydroxytryptamine receptor 2C. As to the kind of experiment: Binding affinity to 5-hydroxytryptamine 2C receptor using [3H]Mesulergine as radioligand in stably transfected NIH3T3 cells.

Sequence of 5-hydroxytryptamine receptor 2A (P28223 whole entry): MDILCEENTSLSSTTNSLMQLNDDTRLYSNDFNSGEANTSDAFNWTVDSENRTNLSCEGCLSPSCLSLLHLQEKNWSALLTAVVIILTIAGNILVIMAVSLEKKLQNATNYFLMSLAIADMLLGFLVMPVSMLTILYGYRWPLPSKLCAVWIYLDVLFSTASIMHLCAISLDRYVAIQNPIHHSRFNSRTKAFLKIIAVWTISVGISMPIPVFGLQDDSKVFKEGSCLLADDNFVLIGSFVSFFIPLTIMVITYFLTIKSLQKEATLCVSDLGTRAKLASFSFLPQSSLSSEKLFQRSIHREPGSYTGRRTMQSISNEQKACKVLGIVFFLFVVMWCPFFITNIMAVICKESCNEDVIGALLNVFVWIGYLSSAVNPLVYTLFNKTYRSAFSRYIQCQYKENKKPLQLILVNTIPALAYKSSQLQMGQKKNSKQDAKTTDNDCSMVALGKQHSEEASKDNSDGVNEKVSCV
Sequence of D(2) dopamine receptor (P61168 whole entry): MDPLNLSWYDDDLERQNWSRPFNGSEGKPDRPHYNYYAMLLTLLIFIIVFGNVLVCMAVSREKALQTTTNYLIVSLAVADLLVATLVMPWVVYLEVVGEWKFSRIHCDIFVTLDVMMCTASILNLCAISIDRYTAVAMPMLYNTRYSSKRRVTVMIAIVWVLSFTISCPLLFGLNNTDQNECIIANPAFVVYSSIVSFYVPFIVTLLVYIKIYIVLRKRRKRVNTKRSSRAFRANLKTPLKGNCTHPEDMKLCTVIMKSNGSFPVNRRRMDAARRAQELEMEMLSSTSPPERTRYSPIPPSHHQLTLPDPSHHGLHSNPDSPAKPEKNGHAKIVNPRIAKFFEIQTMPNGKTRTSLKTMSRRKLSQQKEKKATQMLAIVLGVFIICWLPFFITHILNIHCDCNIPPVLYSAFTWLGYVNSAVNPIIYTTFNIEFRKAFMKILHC
Sequence of Sodium-dependent serotonin transporter (Q60857 whole entry): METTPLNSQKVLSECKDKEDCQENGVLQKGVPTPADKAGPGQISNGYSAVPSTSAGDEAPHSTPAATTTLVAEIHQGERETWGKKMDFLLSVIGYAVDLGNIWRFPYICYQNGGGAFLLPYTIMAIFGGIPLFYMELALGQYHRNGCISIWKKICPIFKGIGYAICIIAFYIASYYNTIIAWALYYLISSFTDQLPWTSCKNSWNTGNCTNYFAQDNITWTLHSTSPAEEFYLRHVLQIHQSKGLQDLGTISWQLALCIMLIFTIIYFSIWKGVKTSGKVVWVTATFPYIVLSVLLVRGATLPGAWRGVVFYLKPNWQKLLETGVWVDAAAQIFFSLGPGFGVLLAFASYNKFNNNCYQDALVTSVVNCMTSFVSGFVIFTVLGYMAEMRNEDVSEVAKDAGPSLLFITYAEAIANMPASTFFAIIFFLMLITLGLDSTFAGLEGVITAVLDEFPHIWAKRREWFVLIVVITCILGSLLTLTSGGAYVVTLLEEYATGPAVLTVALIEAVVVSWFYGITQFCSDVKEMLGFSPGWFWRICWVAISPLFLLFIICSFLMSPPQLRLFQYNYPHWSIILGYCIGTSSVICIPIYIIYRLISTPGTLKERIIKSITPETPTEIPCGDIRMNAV
Sequence of Sodium-dependent noradrenaline transporter (O55192 whole entry): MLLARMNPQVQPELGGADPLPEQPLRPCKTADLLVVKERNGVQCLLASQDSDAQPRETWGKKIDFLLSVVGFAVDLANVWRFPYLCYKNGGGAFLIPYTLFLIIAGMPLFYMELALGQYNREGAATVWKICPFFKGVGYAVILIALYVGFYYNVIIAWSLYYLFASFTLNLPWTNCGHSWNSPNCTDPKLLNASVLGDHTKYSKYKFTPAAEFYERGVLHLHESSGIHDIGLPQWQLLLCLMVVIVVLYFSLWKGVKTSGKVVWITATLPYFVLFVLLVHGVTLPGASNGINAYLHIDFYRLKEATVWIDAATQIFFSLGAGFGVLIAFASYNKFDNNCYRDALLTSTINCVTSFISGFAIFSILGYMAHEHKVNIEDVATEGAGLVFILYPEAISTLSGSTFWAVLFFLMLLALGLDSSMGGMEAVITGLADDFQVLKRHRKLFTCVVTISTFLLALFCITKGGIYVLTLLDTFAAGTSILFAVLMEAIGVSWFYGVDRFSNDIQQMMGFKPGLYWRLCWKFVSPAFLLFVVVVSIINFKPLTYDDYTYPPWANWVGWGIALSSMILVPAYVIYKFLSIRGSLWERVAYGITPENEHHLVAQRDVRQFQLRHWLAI

One may read the Ki as the dissociation constant of the complex between target and ligand, obtained from inhibition or displacement. For the molecule `NCCCN1c2ccccc2CCc2ccccc21`, the Ki in experiment [1] was found to be 397 nM.

Regarding `C[N+](C)(C)CC1c2ccccc2Cc2ccccc21`, in experiment [1], the Ki worked out at 4000 nM.

As to `NCCCC1c2ccccc2Cc2ccccc21`, the Ki in experiment [1] is 32 nM. This Ki is about 120-fold lower than that of the molecule before.

`NC1c2ccccc2Cc2ccccc21` came in with an inhibitory constant (Ki) in experiment [1] of 12000 nM. Compared with the last molecule, the Ki is about 380-fold higher.

On to `NCCC1c2ccccc2Cc2ccccc21`, for which the inhibition constant Ki in experiment [1] is 480 nM.

The molecule `CN(C)CC1c2ccccc2Cc2ccccc21` had a Ki in experiment [1] of 540 nM. This Ki and that of the molecule before are within 1.5-fold of each other.

As for `CN(C)CCCC1c2ccccc2Cc2ccccc21`, in experiment [1], the Ki came to 22 nM.

Molecule `CNCCCC1c2ccccc2Cc2ccccc21` yielded a Ki in experiment [1] of 13 nM.

In turn, `c1ccc(CNCC2c3ccccc3Cc3ccccc32)cc1` displayed an inhibition constant (Ki) in experiment [1] of 721 nM.

As for `NCC1c2ccccc2Cc2ccccc21`, the Ki is greater than 10000 nM in experiment [2], greater than 10000 nM in experiment [3], greater than 10000 nM on D(2) dopamine receptor and 43 nM in experiment [4].

With `CNCC1c2ccccc2Cc2ccccc21`, the affinity in experiment [1] corresponds to a Ki of 52 nM.

As for `CN1CCC(=C2c3ccccc3C=Cc3ccccc32)CC1` [CYPROHEPTADINE], the inhibitory constant (Ki) in experiment [2] stood at 4100 nM; in experiment [3], 290 nM; at D(2) dopamine receptor it was 112 nM; in experiment [5] it was 11 nM.

In turn, `CN(C)CCCN1c2ccccc2CCc2ccccc21` [IMIPRAMINE] showed a Ki at D(2) dopamine receptor of 726 nM.
